The record followed here is US8796292B2, “Selective antibacterials for clostridium difficile infections” (GLSynthesis Inc., priority 2009, dated 2014).

Structures are written as SMILES. In brackets after ≈: the same amount, converted by molar mass. Like-named read-outs stand apart in the source and are kept apart here.

What all share (assay): agar dilution MIC assay of anaerobic bacteria
One test has as its system E. lentum. It counts as cell-based, Eubacterium lentum. The settings on record: Eggerthella lenta; E. lentum, Micromyx Number 1274, Table 1; read-out: MIC. On the procedure: (§1) Each compound was assayed against a panel of anaerobic bacteria in culture, consisting of Gram-positive organisms, such as Lactobacilli, Bifidobacteria, Clostridium spp., and Gram-negative bacteria, such as […] fragilis spp., according to guidelines of the Clinical and Laboratory Standards Institute (CLSI document M11-A7, CLSI, Wayne, Pa., 2007). […] One tenth mL of diluted bacteria containing 500-1000 colony-forming units (CFU) was plated and spread, and the plates incubated at 37° C. for 24-48 hours. MIC (minimum inhibitory concentration) is equivalent to the lowest concentration in μg/ml at which growth, i.e., colony formation, is not observed. […] Bacteria were assayed using a reference agar dilution method. Drug dilutions and drug-supplemented agar plates were prepared manually. The test organisms were maintained frozen at −80° C. The isolates were sub-cultured on Supplemented Brucella Agar (SBA) plates in a Bactron II anaerobic chamber and incubated for 48 hours at 35-36° C. in the Bactron II anaerobe chamber. Following inoculation, the drug-supplemented plates were incubated at 35° C. for 48 hours in the anaerobic environment (5% hydrogen, 5% carbon dioxide, 90% nitrogen) of the Bactron II. The MIC in μg/ml was read per Clinical and Laboratory Standards Institute guidelines.

The subject of the next test is Bi. longum. It counts as cell-based, Bifidobacterium longum. Particulars: Bifidobacterium longum; Bi. longum, Micromyx Number 3968, Table 1; read-out: MIC. On the procedure:
as §1

The subject of the next test is C. difficile. In kind it is cell-based, Clostridium difficile. On the procedure: as §1
The next test deals with Ba. fragilis. It counts as cell-based. The settings on record: Bacteroides fragilis, Ba. fragilis, Micromyx Number 0123 (ATCC strain), Gram negative, Table 1. The procedure: as §1
Another test deals with L. acidophilus. In kind it is cell-based. The settings on record: Lactobacillus acidophilus, Micromyx Number 0681, Table 1. The procedure: as §1
Another test concerns Bi. brevi. In kind it is cell-based, Bifidobacterium brevi. The settings on record: Bifidobacterium; Bi. brevi, Micromyx Number 3967, Table 1. The procedure:
as §1

The test system of the next test is L. casei. In kind it is cell-based, Lactobacillus casei. The settings on record: Lacticaseibacillus casei, Micromyx Number 1722, Table 1. The procedure: as §1
Where [1] appears, read: C. diff. Strain no. 18285, Table 4.
[2] abbreviates: C. diff. Strain no. 19265, Table 4.
Setting [3] is: C. diff. Strain no. 19273, Table 4.
The mark [4] stands for this setting: C. diff. Strain no. 19281, Table 4.
Setting [5] is: C. diff. Strain no. 19291, Table 4.
[6] abbreviates: C. diff. Strain no. 19369, Table 4.
Setting [7] is: C. diff. Strain no. 19382, Table 4.
The mark [8] stands for this setting: C. diff. Strain no. 19540, Table 4.
The mark [9] stands for this setting: C. diff. Strain no. 19580, Table 4.
Where [10] appears, read: C. diff. Strain no. 19680, Table 4.
[11] abbreviates: C. diff. Strain no. 19681, Table 4.
[12] abbreviates: C. diff. Strain no. 19683, Table 4.
The mark [13] stands for this setting: C. diff. Strain no. 19687, Table 4.
[14] abbreviates: C. diff. Strain no. 20066, Table 4.
The mark [15] stands for this setting: C. diff. Strain no. 20152, Table 4.
Where [16] appears, read: C. diff. Strain no. 20307, Table 4.
[17] abbreviates: C. diff. Strain no. 20494, Table 4.
Setting [18] is: C. diff. Strain no. 20680, Table 4.
[19] abbreviates: C. diff. Strain no. 20934, Table 4.
[20] abbreviates: C. diff. Strain no. 21099, Table 4.

A word on the MIC: it is the least concentration at which growth counts as inhibited.

With `CCc1cc(Nc2nc3ncn(CCCCCOC)c3c(=O)[nH]2)ccc1C` [Compound 315C], the MIC in the test on E. lentum was over 32 µg/mL; in the test on Bi. longum, over 32 µg/mL; in the test with C. difficile (Clostridioides difficile, C. difficile, Micromyx Number 1209, Table 1, read-out: MIC), 16 µg/mL (≈ 43.3 µM); in the test with C. difficile (Clostridioides difficile, C. difficile, Micromyx Number 3579, Table 1, read-out: MIC) it was 16 µg/mL (≈ 43.3 µM); in the test on C. difficile (Clostridioides difficile, C. difficile, Micromyx Number 3580, Table 1, read-out: MIC), 8 µg/mL (≈ 21.7 µM); in the test on C. difficile (Clostridioides difficile, C. difficile, Micromyx Number 3581, Table 1, read-out: MIC), 8 µg/mL (≈ 21.7 µM). Moreover, the MIC with C. difficile (Clostridioides difficile, C. difficile, Micromyx Number 3582, Table 1, read-out: MIC) was over 32 µg/mL; in the test on C. difficile (Clostridioides difficile, C. difficile, Micromyx Number 3584, Table 1, read-out: MIC) it was 8 µg/mL (≈ 21.7 µM); in the test on C. difficile (Clostridioides difficile, C. difficile, Micromyx Number 3585, Table 1, read-out: MIC) it was 16 µg/mL (≈ 43.3 µM); in the test with C. difficile (Clostridioides difficile, C. difficile, Micromyx Number 3586, Table 1, read-out: MIC) it was 8 µg/mL (≈ 21.7 µM); in the test with C. difficile (Clostridioides difficile, C. difficile, Micromyx Number 3587, Table 1, read-out: MIC), 8 µg/mL (≈ 21.7 µM); in the test with C. difficile (Clostridioides difficile, C. difficile, Micromyx Number 3588, Table 1, read-out: MIC), 4 µg/mL (≈ 10.8 µM). The MIC in the test on C. difficile (Clostridioides difficile, C. difficile, Micromyx Number 3589, Table 1, read-out: MIC) stood at 16 µg/mL (≈ 43.3 µM); in the test on C. difficile (Clostridioides difficile, C. difficile, Micromyx Number 3590, Table 1, read-out: MIC) it was 8 µg/mL (≈ 21.7 µM); with C. difficile (Clostridioides difficile, C. difficile, Micromyx Number 3591, Table 1, read-out: MIC), 8 µg/mL (≈ 21.7 µM); in the test on C. difficile (Clostridioides difficile, C. difficile, Micromyx Number 3593, Table 1, read-out: MIC), 16 µg/mL (≈ 43.3 µM); in the test with C. difficile (Clostridioides difficile, C. difficile, Micromyx Number 3594, Table 1, read-out: MIC), 8 µg/mL (≈ 21.7 µM); with C. difficile (Clostridioides difficile, C. difficile, Micromyx Number 3595, Table 1, read-out: MIC) it was 8 µg/mL (≈ 21.7 µM). In addition, the MIC was 8 µg/mL (≈ 21.7 µM) in the test on C. difficile (Clostridioides difficile, C. difficile, Micromyx Number 4381 (ATCC strain), Table 1, read-out: MIC); over 32 µg/mL in the test with Ba. fragilis; 16 µg/mL (≈ 43.3 µM) in the test with L. acidophilus; over 32 µg/mL in the test with Bi. brevi; 32 µg/mL (≈ 86.6 µM) against L. casei.

Take `O=c1[nH]c(NCc2ccc(Cl)c(Cl)c2)nc2ncn(CCCN3CCOCC3)c12` [Compound 363A]: the minimal inhibitory concentration (MIC) against C. difficile (setting [1]) is 8 µg/mL (≈ 18.3 µM); with C. difficile (setting [2]) it was 8 µg/mL (≈ 18.3 µM); in the test with C. difficile (setting [3]) it was 4 µg/mL (≈ 9.15 µM); with C. difficile (setting [4]), 8 µg/mL (≈ 18.3 µM); in the test with C. difficile (setting [5]) it was 4 µg/mL (≈ 9.15 µM); in the test with C. difficile (setting [6]) it was 8 µg/mL (≈ 18.3 µM). Moreover, the MIC against C. difficile (setting [7]) was found to be 2 µg/mL (≈ 4.57 µM); in the test on C. difficile (setting [8]) it was 4 µg/mL (≈ 9.15 µM); against C. difficile (setting [9]) it was 2 µg/mL (≈ 4.57 µM); in the test on C. difficile (setting [10]) it was 8 µg/mL (≈ 18.3 µM); with C. difficile (setting [11]) it was 4 µg/mL (≈ 9.15 µM); in the test with C. difficile (setting [12]), 8 µg/mL (≈ 18.3 µM). Further, the MIC in the test with C. difficile (setting [13]) was 8 µg/mL (≈ 18.3 µM); against C. difficile (setting [14]), 8 µg/mL (≈ 18.3 µM); against C. difficile (setting [15]), 8 µg/mL (≈ 18.3 µM); against C. difficile (setting [16]), 2 µg/mL (≈ 4.57 µM); in the test on C. difficile (setting [17]), 8 µg/mL (≈ 18.3 µM); against C. difficile (setting [18]), 8 µg/mL (≈ 18.3 µM). The MIC in the test on C. difficile (setting [19]) stood at 2 µg/mL (≈ 4.57 µM); against C. difficile (setting [20]) it was 8 µg/mL (≈ 18.3 µM).

`O=c1[nH]c(NCc2ccc(Cl)c(Cl)c2)nc2ncn(CCN3CCOCC3)c12` [Compound 362E]: the MIC in the test with C. difficile (setting [1]) was determined as 4 µg/mL (≈ 9.45 µM); in the test on C. difficile (setting [2]) it was 2 µg/mL (≈ 4.72 µM); with C. difficile (setting [3]), 4 µg/mL (≈ 9.45 µM); in the test on C. difficile (setting [4]), 2 µg/mL (≈ 4.72 µM); against C. difficile (setting [5]), 2 µg/mL (≈ 4.72 µM); against C. difficile (setting [6]), 8 µg/mL (≈ 18.9 µM). In addition, the MIC stood at 2 µg/mL (≈ 4.72 µM) in the test with C. difficile (setting [7]); 2 µg/mL (≈ 4.72 µM) with C. difficile (setting [8]); 2 µg/mL (≈ 4.72 µM) in the test with C. difficile (setting [9]); 2 µg/mL (≈ 4.72 µM) against C. difficile (setting [10]); 2 µg/mL (≈ 4.72 µM) in the test on C. difficile (setting [11]); 4 µg/mL (≈ 9.45 µM) against C. difficile (setting [12]). Besides, the minimum inhibitory concentration (MIC) was 4 µg/mL (≈ 9.45 µM) against C. difficile (setting [13]); 4 µg/mL (≈ 9.45 µM) in the test with C. difficile (setting [14]); 8 µg/mL (≈ 18.9 µM) in the test on C. difficile (setting [15]); 2 µg/mL (≈ 4.72 µM) in the test with C. difficile (setting [16]); 2 µg/mL (≈ 4.72 µM) against C. difficile (setting [17]); 2 µg/mL (≈ 4.72 µM) in the test on C. difficile (setting [18]). Also, the MIC came to 1 µg/mL (≈ 2.36 µM) in the test with C. difficile (setting [19]) and 2 µg/mL (≈ 4.72 µM) in the test on C. difficile (setting [20]). Moreover, the “activity against C. diff. strains compared with 359E (in words)” value in the test with C. difficile (summary of Table 4) is listed as “preferred activity against C. diff. strains”.
